Values quoted from earlier work, collected in patent publication US20230357798A1, “GENE CORRECTION FOR X-CGD IN HEMATOPOIETIC STEM AND PROGENITOR CELLS” (THE BOARD OF TRUSTEES OF THE LELAND STANFORD JUNIOR …, priority 2020, published 2023).
Like-named read-outs stand apart in the source and are kept apart here.

Assays:
CD34^+ HSPCs [1] = conditions: for cell viability relative to edited controls: single agent, CD34+ HSPCs
CD34^+ HSPCs [2] = tested on: CD34^+ HSPCs

SMILES	HSPC viability (CD34^+ HSPCs [1]; combined with Trichostatin A and NSC 15520) [%]	cell viability relative to edited controls (CD34^+ HSPCs [1]) [%]	enhancement of HDR (CD34^+ HSPCs [2]; combined with Trichostatin A and NSC 15520, CRISPR/Cpf1, ssODN donor) [fold]	enhancement of HDR (CD34^+ HSPCs [2]; single agent, CD34+ HSPCs) [fold]
O=c1cc(N2CCOCC2)oc2c1ccc1ccccc12 [NU7026]	65	~80	2.6	1.7
O=c1cc(N2CCOCC2)oc2c(-c3cccc4c3sc3ccccc34)cccc12 [NU7441]		~65		2
